Source: article PMC12246422 (Nature Communications, 2025)

What was measured:
[1] = tested on: A549-ACE2 cells; type: cell-based
[2] = tested on: A549-ACE2 cells; type: cell-based; details: 5 μM, 24 hours
[3] = tested on: SARS-CoV-2; test: Time-of-addition experiment in Calu-3 cells, plaque assay; type: cell-based
[4] = tested on: SARS-CoV-2 subgenomic replicon; type: cell-based; details: Vero E6-TMPRSS2 cells, 24 h
[5] = cited from earlier work

Row | SMILES | autolysosome number and autolysosome-to-autophagosome ratio relative to DMSO [1] | morphology of A549-ACE2 cells expressing 2xFYVE PI3P marker [2] | time-of-addition profile [3] | viral RNA replication, subgenomic replicon [4] | pharmacokinetic profile [5]
1 | CCN(CC)CCCC(C)Nc1ccnc2cc(Cl)ccc12 (centres unmarked) [chloroquine] | moderately reduced | – | – | – | –
2 | Cc1cccc(/C=N/Nc2cc(N3CCOCC3)nc(OCCc3ccccn3)n2)c1 [Apilimod] | – | cytosolic vacuolation and swelling of membrane structures | suppressed SARS-CoV-2 replication when added during the first two hpi, but not at later time points | dose-dependently increased viral RNA replication | suboptimal pharmacokinetic profile
